The values below come from US20040029823A1, “Antisense oligonucleotide compositions and methods for the modulation of JNK proteins” (priority 1997, published 2004).

Data set [1] deals with MDA-MB-231 tumors. Nature of the data set: MDA-MB-231 human breast adenocarcinoma tumors in nude mice. The data set is classed as in vivo. Conditions: 25 mg/kg intravenous once daily. An excerpt:
Approximately 5×10^6 breast adenocarcinoma cells (cell line MDA-MB-231; American Type Culture Collection, Richmond, Va., No. ATCC HTB-26) were implanted subcutaneously in the right inner thigh of nude mice (n=6 for each of three sets of mice). Oligonucleotides ISIS 15346 (JNK1, SEQ ID NO: 16) and 15353 (JNK2, SEQ ID NO: 31) were suspended in saline and administered once daily to two sets of mice on the first day the tumor volume was about […]. A saline-only (0.9% NaCl) solution was given to a third set of animals as a control. Oligonucleotides were given by intravenous injection at a dosage of 25 mg/kg. Tumor size was measured and tumor volume was calculated on days 12, 19, 26 and 33 following tumor cell inoculation.

Data set [2] relates to HUVEC. Nature of the data set: Apoptosis in HUVEC (percent hypodiploid cells, flow cytometry). Type of data set: cell-based, human. The conditions noted are these: HUVEC.
Data set [3] deals with TNFa-induced JNK activity. Nature of the data set: TNFa-induced JNK activity in HUVEC (GST-c-Jun phosphorylation). The data set is classed as cell-based, human. The conditions noted are these: 100 nM oligonucleotide, compared to a control oligonucleotide.

Take “G^ST^SC^SC^SG^SG^SG^SC^SC^SA^SG^SG^SC^SC^SA^SA^SA^SG^ST^SC (antisense GTCCGGGCCAGGCCAAAGTC; DNA, all phosphorothioate, methylation of C not given here) [ISIS 15353, JNK2 gapmer: P═S, 2′-MOE wings; P═S, 2-deoxy core]”: the “Mean Tumor Volume” value in data set [1] (Day 12 after tumor cell inoculation) was 0.122 cm^3; in data set [1] (Day 19), 0.230 cm^3; in data set [1] (Day 26) it was 0.358 cm^3; in data set [1] (Day 33), 0.762 cm^3. The “percent hypodiploid cells (a measure of apoptosis)” value came out at 27% in data set [2] (Oligo + Cyclohexamide), 32% in data set [2] (Oligo + TNFa (10 ng/ml)), 17% in data set [2] (Oligo + z-VAD.fmk) and 23% in data set [2] (Oligo alone). In addition, in data set [3], the “inhibition of TNFa-induced JNK activity” value is recorded as roughly 55%.
